Laboratory results published in PubChem BioAssay AID624405 (Broad Institute, 2012).
Inconclusive results are not listed.

The compounds below were run on C2C12 myotubes + simvastatin, ATP luminescence, 48 h (assay: rescue of simvastatin-induced ATP loss – cell-based, C2C12 myotubes, ATP luminescence, cherry pick, dose response (AID 624405);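 note: myotubes are challenged with simvastatin at 10 µM to lower ATP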).

**Q.** C[C@@H]1CN([C@@H](C)CO)C(=O)c2cccc(NC(=O)Nc3ccc4c(c3)OCO4)c2O[C@H]1CN(C)Cc1ccc(C(=O)Nc2ccccc2N)cc1 was tested. Which AC40 did it give?
**A.** The AC40 was 9.42 µM.

**Q.** CC1(Cc2ccc(Cl)cc2)C(=O)Nc2ccc(-c3cccnc3)cc21 (stereo not drawn) was tested. Which AC40 did it give?
**A.** The AC40 was 15.8 µM.

**Q.** How did the AC40 turn out when Cc1noc(C)c1S(=O)(=O)Nc1ccc2c(c1)CC(=O)N([C@H](C)CO)C[C@@H](C)[C@@H](CN(C)Cc1ccc(-c3ccccc3)cc1)O2 was run?
**A.** Its AC40 is 3.64 µM.

**Q.** For Cc1ccc(S(=O)(=O)Nc2ccc3c(c2)CC(=O)N([C@H](C)CO)C[C@H](C)[C@@H](CN(C)Cc2ccc4c(c2)OCO4)O3)cc1, which AC40 is on record?
**A.** Its AC40 is 14.1 µM.

**Q.** With Cc1ccc(C2OC(=O)c3ccccc32)cc1 (stereo not drawn) as the compound, how does the AC40 read?
**A.** The AC40 was 2.21 µM.

**Q.** With COc1ccc(CN2[C@H](CO)[C@H]3c4ccccc4NC[C@H]32)cc1 as the compound, how does the AC40 read?
**A.** The AC40 was 17.8 µM.

**Q.** With CS(=O)(=O)N1CCN(C(=O)c2cc(-c3ccncc3)nc3ccc(Cl)cc23)CC1 as the compound, how does the AC40 read?
**A.** Its AC40 is 11.4 µM.

**Q.** With O=S(=O)(c1ccccc1)c1nc(-c2ccco2)oc1N1CCCCCC1 as the compound, how does the AC40 read?
**A.** Its AC40 is 6.08 µM.

**Q.** Cc1ccc(S(=O)(=O)Nc2ccc3c(c2)CC(=O)N([C@H](C)CO)C[C@H](C)[C@@H](CN(C)Cc2ccc(Cl)c(Cl)c2)O3)cc1 was tested. Which AC40 did it give?
**A.** The AC40 was 8.12 µM.

**Q.** Which AC40 does the source give for Cc1ccc(S(=O)(=O)Nc2ccc3c(c2)CC(=O)N([C@@H](C)CO)C[C@@H](C)[C@H](CN(C)Cc2ccc(-c4ccccc4)cc2)O3)cc1 here?
**A.** The AC40 was 1.17 µM.

**Q.** How did the AC40 turn out when O=C(C[C@H]1CC[C@@H]2[C@H](COC[C@@H](O)CN2Cc2ccc(Oc3ccccc3)cc2)O1)N1CCCCC1 was run?
**A.** Its AC40 is 3.19 µM.

**Q.** How did the AC40 turn out when Cc1ccc(C2CC2c2n[nH]c(=S)n2-c2ccc(C)cc2)cc1 (stereo not drawn) was run?
**A.** Its AC40 is 6.33 µM.

**Q.** How did the AC40 turn out when Oc1[nH]c2ccccc2c1C=Nc1ccc2c(c1)OCO2 was run?
**A.** The AC40 was 1.99 µM.

**Q.** C[C@@H]1CN([C@H](C)CO)C(=O)Cc2cc(NC(=O)CCCCCC(=O)Nc3ccccc3N)ccc2O[C@@H]1CN(C)Cc1ccc(Cl)c(Cl)c1 was tested. Which AC40 did it give?
**A.** The AC40 was 9.57 µM.

**Q.** Which AC40 does the source give for C[C@H](CO)N1C[C@H](C)[C@@H](CN(C)Cc2ccc(Cl)c(Cl)c2)Oc2ccc(NC(=O)C3CCCCC3)cc2CC1=O here?
**A.** The AC40 was 17.4 µM.

**Q.** For C[C@@H]1CN([C@@H](C)CO)C(=O)c2cc(NS(=O)(=O)c3ccc(Cl)cc3)ccc2O[C@H]1CN(C)C(=O)Nc1cccc2ccccc12, which AC40 is on record?
**A.** Its AC40 is 9.49 µM.

**Q.** C[C@H]1CN([C@@H](C)CO)C(=O)Cc2cc(NC(=O)CCCCCC(=O)Nc3ccccc3N)ccc2O[C@H]1CN(C)Cc1ccc(C(F)(F)F)cc1 was tested. Which AC40 did it give?
**A.** The AC40 was 4.15 µM.

**Q.** With CC(C)C(=O)N(c1ccc2oc(=O)sc2c1)S(=O)(=O)c1ccccc1 as the compound, how does the AC40 read?
**A.** Its AC40 is 3.85 µM.

**Q.** Which AC40 does the source give for Cc1ccc(S(=O)(=O)Nc2ccc3c(c2)C(=O)N([C@H](C)CO)C[C@H](C)[C@H](CN(C)Cc2ccc(C(=O)Nc4ccccc4N)cc2)O3)cc1 here?
**A.** The AC40 was 17 µM.

**Q.** For Cc1ccc(S(=O)(=O)Nc2ccc3c(c2)CC(=O)N([C@@H](C)CO)C[C@H](C)[C@@H](CN(C)Cc2ccc(-c4ccccc4)cc2)O3)cc1, which AC40 is on record?
**A.** The AC40 was 18.9 µM.

**Q.** How did the AC40 turn out when C[C@@H]1CN([C@H](C)CO)C(=O)c2cc(NC(=O)Nc3cccc4ccccc34)ccc2O[C@@H]1CN(C)Cc1ccc(C(=O)Nc2ccccc2N)cc1 was run?
**A.** Its AC40 is 6.44 µM.

**Q.** For Cc1ccc(O)c(CNc2ccccn2)c1, which AC40 is on record?
**A.** Its AC40 is 0.443 µM.

**Q.** How did the AC40 turn out when O=c1[nH]ncc2c3ccccc3n(Cc3ccccc3)c12 was run?
**A.** The AC40 was 5.26 µM.

**Q.** With COC(=O)c1cc(=O)n(CCc2ccccc2F)c(=Nc2ccc(F)c(Cl)c2)s1 as the compound, how does the AC40 read?
**A.** Its AC40 is 2.81 µM.

**Q.** For O=C(NCc1ccco1)C1CCN(C(=O)c2cc3sccc3n2Cc2ccc(F)cc2)CC1, which AC40 is on record?
**A.** Its AC40 is 12.1 µM.

**Q.** For COc1cccc(-c2ccc([C@@H]3[C@@H](C#N)N(C(=O)Cc4ccccc4)[C@H]3CO)cc2)c1, which AC40 is on record?
**A.** The AC40 was 11.5 µM.

**Q.** With COc1ccc(C#Cc2cnc3c(c2)C(=O)N([C@H](C)CO)C[C@H](C)[C@H](CN(C)Cc2ccccc2)O3)cc1OC as the compound, how does the AC40 read?
**A.** The AC40 was 2.66 µM.

**Q.** Which AC40 does the source give for C[C@H](CO)N1C[C@H](C)[C@@H](CN(C)Cc2ccc(Cl)c(Cl)c2)Oc2ccc(NC(=O)Cc3cn(C)c4ccccc34)cc2CC1=O here?
**A.** The AC40 was 7.35 µM.

**Q.** C[C@@H]1C[C@@H]([C@H](O)CC2CC(=O)NC(=O)C2)C(=O)[C@@H](C)C1 was tested. Which AC40 did it give?
**A.** Its AC40 is less than 0.16 µM.

**Q.** For CC(=O)c1c(C(C)=O)c(C)n(Cc2ccc(Cl)cc2)c1C, which AC40 is on record?
**A.** Its AC40 is 16.9 µM.

**Q.** Which AC40 does the source give for CCC(c1nnnn1C1CCCC1)N1CCN(c2ccccc2F)CC1 (stereo not drawn) here?
**A.** The AC40 was 4.11 µM.

**Q.** With COc1ccc(-n2c(C)cc(C=O)c2C)cc1Cl as the compound, how does the AC40 read?
**A.** Its AC40 is 9.14 µM.

**Q.** O=C(C[C@H]1CC[C@@H]2[C@H](COC[C@H](O)CN2CCC(F)(F)F)O1)NCc1ccc(Oc2ccccc2)cc1 was tested. Which AC40 did it give?
**A.** Its AC40 is 7.6 µM.

**Q.** How did the AC40 turn out when c1coc(-c2nc3ccccc3s2)c1 was run?
**A.** The AC40 was 18 µM.

**Q.** With Cc1noc(C)c1NC(=O)Nc1cccc2c1O[C@H](CN(C)Cc1ccc(-c3ccccc3)cc1)[C@@H](C)CN([C@H](C)CO)C2=O as the compound, how does the AC40 read?
**A.** The AC40 was 12.6 µM.

**Q.** How did the AC40 turn out when O=C(NCc1ccco1)c1cc2sccc2n1Cc1ccccc1 was run?
**A.** The AC40 was 0.839 µM.

**Q.** How did the AC40 turn out when COc1cc(NC(=O)CN(C)S(=O)(=O)c2ccc3c(c2)CC(C)N3C(C)=O)cc(OC)c1OC (stereo not drawn) was run?
**A.** The AC40 was 15.9 µM.

**Q.** For CC1Cc2ccccc2N1C(=O)CSc1nnc(Cc2ccccc2)n1CCc1ccccc1 (stereo not drawn), which AC40 is on record?
**A.** The AC40 was 8.6 µM.

**Q.** How did the AC40 turn out when CC(=O)C(=Nc1ccccc1Cl)NNc1ccc(Cl)cc1 was run?
**A.** Its AC40 is 6.58 µM.

**Q.** For C[C@H]1CN([C@@H](C)CO)C(=O)c2cc(N(C)C)ccc2O[C@@H]1CN(C)Cc1ccc(C(=O)Nc2ccccc2N)cc1, which AC40 is on record?
**A.** The AC40 was 5.34 µM.

**Q.** Cc1ccc(N2CC(C(=O)Nc3ccc(N(C)C)cc3)CC2=O)cc1C (stereo not drawn) was tested. Which AC40 did it give?
**A.** The AC40 was 12 µM.

**Q.** Cc1nn2c3ccccc3n(Cc3ccccc3)c2nc1=O was tested. Which AC40 did it give?
**A.** The AC40 was 19 µM.

**Q.** For Cc1ccc(S(=O)(=O)N(C)C[C@H]2Oc3c(NC(=O)Nc4ccccc4)cccc3C(=O)N([C@@H](C)CO)C[C@H]2C)cc1, which AC40 is on record?
**A.** The AC40 was 18 µM.
